Data published in paper PMC12867150, “A fungi-derived cyclic peptide enhances Th9-mediated antitumor immunity by targeting ZAP70 and SREBP1” (The Journal of Clinical Investigation, 2025).

Experiments:
[1] = system: natural killer (NK) cells; assay: Flow cytometry of NK cells (S1L-M); format: in vivo, mouse; parameters: key to Frequencies of NK in Spleen / Frequencies of NK in LN: % of cells; details: for Frequencies of NK in LN: Supplemental Figure 1M left; for number of NK in LN: Supplemental Figure 1M right; for NK (NK1.1) gate number: representative flow plot; for Frequencies of NK in Spleen: Supplemental Figure 1L left; for number of NK in Spleen: Supplemental Figure 1L right
Description: C57BL/6 mice were subcutaneously injected with 5 × 10^5 B16-OVA melanoma cells. Five days after tumor implantation, mice received an intravenous infusion of 2 × 10^6 in vitro–differentiated Th9 cells (cultured for 5 days), which were derived from OT-II CD45.1 donor mice, accompanied by 4 × 10^5 OVA peptide–pulsed DCs via the tail vein. To enhance T cell engraftment and facilitate lymphodepletion, a single intraperitoneal injection of cyclophosphamide (200 mg/kg, Sigma, catalog C0768) was administered 1 day prior to T cell transfer. Mice were euthanized at designated time points for the collection and analysis of spleens, tumor-draining lymph nodes, and tumor tissues.
Details regarding staining panels (human and mouse), reagents (including clones and catalog numbers), acquisition settings, compensation/controls, and analysis procedures are provided in Supplemental Methods. […]
Figure S1. EpA enhances immune responses. […]
(L and M) Representative plots, frequencies, and total numbers of natural killer (NK) cells in spleens (L) and LNs (M). Data in (A–M) are shown as mean ± SEM from n = 4 mice per group. Statistical analysis was performed using two-way ANOVA with Tukey’s post hoc test (A), one-way ANOVA with Tukey’s post hoc test (B) or two-tailed unpaired Student’s t-test (D and G–M). ns, not significant. *p < 0.05, **p < 0.01, ****p < 0.0001.
(also on this page, place not known: Mouse weight (g) CtrlEpA CtrlEpA CtrlEpA0 I CD45.1+ T cells (%) CtrlEpA CD4+ T cells (%) CtrlEpA CtrlEpA CtrlEpA FSC CD8 CD8 FSC FSC FSC BNumber of CD45.1+ T cells (×103 per mgĎ Number of CD4+ T cells (×104 per mgĎ DC (%)NK cells (%) NK cells (%) DC (%) Number of DC (×103 per mg) Number of NK cells (×105) Number of NK cells (×103 per mg) Number of DC (×105) FSC FSC FSC CD8 CtrlEpA CtrlEpA CtrlEpA CD8+ T cells (%) Number of CD8+ T cells (×104 per mgĎ nsns ns nsns ns 40 IL-6 (pg/ml))

B16-OVA melanoma = assay: Adoptive transfer of OT-II Th9 cells with anti-PD-1, B16-OVA tumor growth (Figure 2I); format: in vivo, C57BL/6 mice; details: EpA-Th9 cells with anti-PD-1; result in words
Text: (A) Schematic of the therapeutic model. C57BL/6 mice were subcutaneously inoculated with B16-OVA melanoma cells (5 × 10^5) and preconditioned with cyclophosphamide (CTX) on day 4. […] (B–G) Flow-cytometric analysis of transferred CD45.1^+ OT-II Th9 cells (B and C) and endogenous CD4^+ (D and E) and CD8^+ T cells (F and G) in spleens and tumors, showing frequencies and absolute numbers (n = 4 mice per group). (H) Tumor growth curves in B16-OVA–bearing C57BL/6 or β2-microglobulin–deficient (β2m-KO) mice following transfer of control or EpA-treated OT-II Th9 cells (n = 4 mice per group). (I) C57BL/6 mice bearing B16-OVA tumors were treated with control or EpA-induced OT-II Th9 cells (2 × 10^6, i.v., day 5), followed by anti–PD-1 antibody (200 μg, i.p.) on day 7, and (100 μg, i.p.) on day 10 and 12. Tumor growth is shown with individual trajectories (n = 6 mice per group). Statistical analysis was performed using 2-tailed unpaired Student’s t test ([…], B–G) or 1-way ANOVA with Tukey’s post hoc test (H and I). All data are presented as the mean ± SEM. *P < 0.05, **P < 0.01, ***P < 0.001. Schematic in A created using BioRender (https://Biorender.com).
Finally, we examined whether the CD8^+ T cell–supporting capacity of EpA-Th9 cells could synergize with immune checkpoint blockade (ICB) therapy. […]

[2] = system: lipid species of Th9 cells; assay: Untargeted lipidomics of Th9 cells (Figure 6B); format: cell-based, mouse; details: day 4; result in words
Description: Comprehensive lipidomic profiling was performed using a liquid chromatography–mass spectrometry (LC-MS) platform. Briefly, samples were first subjected to protein precipitation and impurity removal to ensure metabolite integrity. Lipid species were then extracted using a solvent-based protocol optimized for broad lipid class coverage. LC-MS analysis was conducted in both positive and negative ionization modes to maximize lipid detection breadth. Mass spectrometry data, including MS and MS/MS spectra, were acquired using a high-resolution instrument. Lipid identification and quantification were performed using LipidSearch software (Thermo Fisher Scientific), which generated a lipid expression matrix for downstream statistical and pathway analysis.

## anteiso-C15 Leu7 surfactin [EpA]
[1]; LN, replicate 1
  Frequencies of NK in LN: 1.5
  number of NK in LN: 2211.77
[1]; LN, replicate 2
  Frequencies of NK in LN: 1.56
  number of NK in LN: 2015.49
[1]; LN, replicate 3
  Frequencies of NK in LN: 7.14
  number of NK in LN: 5620.7
[1]; LN, replicate 4
  Frequencies of NK in LN: 7.79
  number of NK in LN: 5844.48
[1]; LN, Figure S1M
  NK (NK1.1) gate number: 1.56
[1]; Spleen, replicate 1
  Frequencies of NK in Spleen: 14.2
  number of NK in Spleen: 1287047
[1]; Spleen, replicate 2
  Frequencies of NK in Spleen: 14.6
  number of NK in Spleen: 1289552
[1]; Spleen, replicate 3
  Frequencies of NK in Spleen: 14.4
  number of NK in Spleen: 1303518
[1]; Spleen, replicate 4
  Frequencies of NK in Spleen: 13.7
  number of NK in Spleen: 1053933
[1]; Spleen, Figure S1L
  NK (NK1.1) gate number: 14.2
[1]; result in words
  NK cells: increased only in the spleen
B16-OVA melanoma
  response to PD-1 blockade: significantly enhanced the therapeutic response to PD-1 blockade
[2]
  lipid species: global reduction in lipid species
